In DBAASP:
Converted amounts (≈) assume the structure as drawn. “And” between values parts separate entries of the source, which are not always exact repeats. Equal values may be shown once. Each block holds one compound with its values, some of them ahead of it.

Key:
Assay in all cases: ≥ marks a high value that may be exact or a test limit, other limits are often not marked, values filed in µg/mL are converted to µM
[1] = test system: Pseudomonas aeruginosa ATCC 27853
[2] = test system: Staphylococcus aureus 710A
[3] = test system: Salmonella enterica subsp. enterica serovar Typhimurium ATCC 14028
Bacillus megaterium Bm11 = test system: Bacillus megaterium Bm11
Escherichia coli ML-35 = test system: Escherichia coli ML-35
[4] = test system: Cronobacter sakazakii DPC 6440
[5] = test system: Salmonella enterica subsp. enterica serovar Typhimurium LT2
[6] = test system: Cronobacter muytjensii ATCC 51329
[7] = test system: Cronobacter sakazakii ATCC BAA-894
[8] = test system: Staphylococcus aureus RF122
[9] = test system: Cronobacter sakazakii DSM 4485
[10] = test system: Staphylococcus aureus Newman
[11] = test system: Pseudomonas fluorescens NCIMB 9046
[12] = test system: Staphylococcus aureus RN4220
[13] = test system: Staphylococcus aureus SA113
[14] = test system: Klebsiella pneumoniae NCIMB 13218
[15] = test system: Escherichia coli NCIMB 11843
[16] = test system: Staphylococcus aureus NCTC 8325-4
[17] = test system: Lactiplantibacillus plantarum 8014
[18] = test system: Staphylococcus aureus ATCC 25923
[19] = test system: Candida tropicalis CGMCC 2.1975
Escherichia coli UB1005 = test system: Escherichia coli UB1005
[20] = test system: Staphylococcus epidermidis ATCC 12228
[21] = test system: Escherichia coli ATCC 25922
[22] = test system: Staphylococcus aureus ATCC 29213
Escherichia coli 987P = test system: Escherichia coli 987P
[23] = test system: Lacticaseibacillus rhamnosus 7469
[24] = test system: Salmonella enterica subsp. enterica serovar Typhimurium C77-31
Escherichia coli K88 = test system: Escherichia coli K88
[25] = test system: Pseudomonas aeruginosa PAO1
[26] = test system: Candida parapsilosis CGMCC 2.3989
Escherichia coli 078 = test system: Escherichia coli 078
[27] = test system: Candida albicans CGMCC 2.2086
Escherichia coli K99 = test system: Escherichia coli K99
[28] = test system: Pseudomonas aeruginosa Z61
[29] = test system: Pseudomonas aeruginosa H744
[30] = test system: Pseudomonas aeruginosa K799
[31] = test system: Pseudomonas aeruginosa H547
[32] = test system: Salmonella enterica subsp. enterica serovar Typhimurium ATCC 14028s
[33] = test system: Pseudomonas aeruginosa H374
[34] = test system: Staphylococcus epidermidis KCTC 1917
[35] = test system: Pseudomonas aeruginosa ATCC 15692
[36] = test system: Salmonella typhimurium KCTC 1926
[37] = test system: Listeria monocytogenes KCTC 19111
Bacillus subtilis 168 HT = test system: Bacillus subtilis 168 HT
Escherichia coli MG1655 = test system: Escherichia coli MG1655

MIC [18]: 16 µM (≈ 26.3 µg/mL)
MIC [34]: 4 µM (≈ 6.57 µg/mL)
MIC [35]: 4 µM (≈ 6.57 µg/mL)
MIC [21]: 1 µM (≈ 1.64 µg/mL)
MIC [36]: 2 µM (≈ 3.28 µg/mL)
MIC [37]: 4 µM (≈ 6.57 µg/mL)
SMILES: CC(C)[C@H](NC(=O)[C@H](Cc1c[nH]c2ccccc12)NC(=O)[C@H](CCCCN)NC(=O)[C@H](CCCCN)NC(=O)[C@@H](NC(=O)[C@H](Cc1c[nH]c2ccccc12)NC(=O)[C@H](CCCCN)NC(=O)[C@H](CCCCN)NC(=O)[C@@H](NC(=O)[C@H](Cc1c[nH]c2ccccc12)NC(=O)[C@@H](N)CCCCN)C(C)C)C(C)C)C(=O)N[C@@H](CCCCN)C(N)=O [KWVKKWVKKWVK]

MIC (Bacillus subtilis 168 HT): ≥ 40.7 µM
MIC (Escherichia coli MG1655): ≥ 81 µM
SMILES: CC[C@H](C)[C@H](NC(=O)[C@@H](N)CC(C)C)C(=O)N[C@H](C(=O)N[C@@H](CC(C)C)C(=O)N[C@H](C(=O)N[C@@H](CS)C(=O)N[C@@H](CCCN=C(N)N)C(=O)N[C@@H](CCCCN)C(=O)N[C@@H](CCCCN)C(=O)N[C@@H](CCCCN)C(=O)N[C@@H](CCCCN)C(=O)N1CCC[C@H]1C(=O)N[C@@H](Cc1ccccc1)C(=O)O)[C@@H](C)O)C(C)C [LIVLTCRKKKKPF]

MIC (Bacillus subtilis 168 HT): ≥ 82 µM
MIC (Escherichia coli MG1655): ≥ 82 µM
SMILES: CC[C@H](C)[C@H](NC(=O)CNC(=O)[C@H](C)NC(=O)[C@H](Cc1cnc[nH]1)NC(=O)[C@@H](NC(=O)[C@H](CCCCN)NC(=O)[C@H](Cc1ccc(O)cc1)NC(=O)[C@@H]1CCCN1C(=O)[C@@H](NC(=O)[C@H](CC(C)C)NC(=O)[C@H](CCCCN)NC(=O)[C@H](CCCCN)NC(=O)[C@@H](N)Cc1c[nH]c2ccccc12)C(C)C)[C@@H](C)CC)C(=O)O [WKKLVPYKIHAGI]

More lines, now with the values behind:

SMILES: CC[C@H](C)[C@H](NC(=O)[C@H](CCCCN)NC(=O)[C@H](CCCCN)NC(=O)[C@H](CC(C)C)NC(=O)[C@H](CC(C)C)NC(=O)CN)C(=O)N[C@@H](C)C(=O)N[C@@H](CCCCN)C(=O)N[C@@H](CCCCN)C(=O)N[C@@H](C)C(=O)N[C@@H](CCCCN)C(=O)N[C@@H](CCCCN)C(=O)N[C@@H](C)C(=O)NCC(=O)N[C@@H](CCCCN)C(=O)N[C@@H](CCCCN)C(=O)N[C@@H](CC(C)C)C(=O)NCC(=O)N[C@@H](Cc1ccc(O)cc1)C(N)=O [GLLKKIAKKAKKAGKKLGY]
MIC [1]: 8 µM (≈ 16.3 µg/mL)
MIC [2]: ≥ 32 µM
MIC [3]: > 32 µM
MIC (Bacillus megaterium Bm11): ≥ 32 µM
MIC (Escherichia coli ML-35): 4 µM (≈ 8.17 µg/mL)

SMILES: CC[C@H](C)[C@H](NC(=O)[C@H](CCCCN)NC(=O)[C@H](CCCCN)NC(=O)[C@H](CC(C)C)NC(=O)[C@H](CC(C)C)NC(=O)CN)C(=O)NCC(=O)N[C@@H](CCCCN)C(=O)N[C@@H](CCCCN)C(=O)N[C@@H](C)C(=O)N[C@@H](CCCCN)C(=O)N[C@@H](CCCCN)C(=O)N[C@@H](C)C(=O)N[C@@H](CC(C)C)C(=O)N[C@@H](CCCCN)C(=O)N[C@@H](CCCCN)C(=O)N[C@@H](CC(C)C)C(=O)NCC(=O)N[C@@H](Cc1ccc(O)cc1)C(N)=O [GLLKKIGKKAKKALKKLGY]
MIC [1]: 0.5 µM (≈ 1.04 µg/mL)
MIC [2]: 2 µM (≈ 4.17 µg/mL)
MIC [3]: 2 µM (≈ 4.17 µg/mL)
MIC (Bacillus megaterium Bm11): 2 µM (≈ 4.17 µg/mL)
MIC (Escherichia coli ML-35): 0.5 µM (≈ 1.04 µg/mL)

SMILES: CC[C@H](C)[C@H](N)C(=O)N[C@@H](C)C(=O)N[C@@H](Cc1cnc[nH]1)C(=O)N[C@@H](CCC(N)=O)C(=O)NCC(=O)N[C@@H](CC(C)C)C(=O)N1CCC[C@H]1C(=O)N[C@@H](CCC(N)=O)C(=O)N[C@@H](CCC(=O)O)C(=O)O [IAHQGLPQE]
MIC [4]: ≥ 312 µM
MIC [5]: ≥ 1250 µM
MIC [6]: ≥ 2500 µM
MIC [7]: ≥ 2500 µM
MIC [8]: ≥ 1250 µM
MIC [9]: ≥ 2500 µM
MIC [10]: ≥ 1250 µM
MIC [11]: ≥ 1250 µM
MIC [12]: ≥ 1250 µM
MIC [13]: ≥ 1250 µM
MIC [14]: ≥ 1250 µM
MIC [15]: ≥ 1250 µM
MIC [16]: ≥ 1250 µM

SMILES: CC[C@H](C)[C@H](N)C(=O)N[C@@H](Cc1cnc[nH]1)C(=O)N[C@@H](Cc1cnc[nH]1)C(=O)N[C@H](C(=O)N[C@@H](Cc1cnc[nH]1)C(=O)N[C@@H](Cc1cnc[nH]1)C(=O)N[C@@H](Cc1cnc[nH]1)C(=O)N[C@H](C(=O)N[C@@H](Cc1cnc[nH]1)C(=O)N[C@@H](Cc1cnc[nH]1)C(=O)N[C@H](C(=O)N[C@@H](Cc1cnc[nH]1)C(=O)N[C@@H](Cc1cnc[nH]1)C(=O)N[C@@H](Cc1cnc[nH]1)C(N)=O)[C@@H](C)CC)[C@@H](C)CC)[C@@H](C)CC [IHHIHHHIHHIHHH]
MIC [17]: ≥ 64 µM
MIC [18]: > 64 µM
MIC [19]: 1 µM (≈ 1.84 µg/mL)
MIC (Escherichia coli UB1005): ≥ 64 µM
MIC [20]: > 64 µM
MIC [3]: > 64 µM
MIC [21]: 64 µM and > 32 µM
MIC [22]: > 64 µM
MIC (Escherichia coli 987P): ≥ 64 µM
MIC [23]: ≥ 64 µM
MIC [24]: ≥ 64 µM
MIC (Escherichia coli K88): ≥ 64 µM
MIC [25]: 64 µM (≈ 118 µg/mL)
MIC [26]: 2 µM (≈ 3.68 µg/mL)
MIC (Escherichia coli 078): ≥ 64 µM
MIC [27]: 16 µM (≈ 29.5 µg/mL)
MIC (Escherichia coli K99): ≥ 64 µM

SMILES: CC(C)[C@H](NC(=O)[C@H](CO)NC(=O)[C@H](CC(N)=O)NC(=O)[C@H](CC(=O)O)NC(=O)[C@H](Cc1ccccc1)NC(=O)[C@H](CO)NC(=O)CNC(=O)[C@@H](NC(=O)[C@H](CCC(N)=O)NC(=O)[C@H](CCCCN)NC(=O)[C@H](Cc1ccccc1)NC(=O)[C@H](Cc1ccccc1)NC(=O)[C@H](CO)NC(=O)[C@H](CCCCN)NC(=O)[C@H](CCCN=C(N)N)NC(=O)[C@H](Cc1c[nH]c2ccccc12)NC(=O)[C@H](CCCCN)NC(=O)[C@@H](N)CCCCN)C(C)C)C(=O)O [KKWRKSFFKQVGSFDNSV]
MIC (Escherichia coli UB1005): 29.2 µM (≈ 64 µg/mL)
MIC [28]: 29.2 µM (≈ 64 µg/mL)
MIC [29]: 29.2 µM (≈ 64 µg/mL)
MIC [30]: 29.2 µM (≈ 64 µg/mL)
MIC [31]: 29.2 µM (≈ 64 µg/mL)
MIC [32]: 29.2 µM (≈ 64 µg/mL)
MIC [33]: 29.2 µM (≈ 64 µg/mL)
